For this experiment, the target named is T1, recombinant HIV reverse transcriptase (HIV RTR) (Human immunodeficiency virus type 1 group M subtype B, UniProt P03366).
T1 construct: recombinant HIV reverse transcriptase (HIV RTR)
Nature of the experiment: Reverse transcriptase assay (incorporation of tritiated deoxyguanosine monophosphate into acid-precipitable cDNA). The experiment is classed as biochemical. The settings on record: [³H] dGTP and poly r(C)·oligo d(G)12-18 each at about Km; 37°C for 45 minutes; read-out: IC₅₀ value. The protocol: The assay measures the incorporation of tritiated deoxyguanosine monophosphate by recombinant HIV reverse transcriptase (HIV RTR) (or other RT) into acid-precipitable cDNA at the Km values of dGTP and poly r(C)·oligo d(G)₁₂₋₁₈.
Thirty µL of a reaction mixture containing equal volumes of: 500 mM Tris·HCl (pH 8.2), 300 mM MgCl₂, 1200 mM KCl, 10 mM DTT, 400 µg/mL poly r(c)·oligo d(G) [prepared by dissolving 1.5 mg (25 U) poly r(C)·oligo d(G) in 1.5 ml sterile distilled H₂O and diluting to 400 µg/ml], 0.1 µCi/µl [³H] dGTP, 160 µM dGTP, was added to 10 µl sterile distilled H₂O, 2.5 µl of potential inhibitor and 10 µL of 5 nM purified HIV RTR in tubes. The mixture was incubated at 37°C for 45 minutes.
After incubation is complete, the tubes were cooled in ice for 5 minutes. Ice-cold 13% TCA containing 10 mM NaPPi (200 µl) is added and the mixture incubated on ice for 30 minutes. The precipitated cDNA is removed by filtration using presoaked glass filters [TCA, NaPPi]. […]
The filter discs are then counted in a scintillation counter.
Under these conditions [dGTP] and poly r(C)·oligo d(G)₁₂₋₁₈ each are approximately equal to the appropriate Km value. […] Calculated IC₅₀ values for the tested compounds of this invention vary from about 12 nM to more than 300 µM, with the most preferred compounds having values of between about 30 nM and about 60 µM. […]

Structures are written as SMILES.

As to `C#CC1(c2ccccc2)c2cc(Cl)ccc2NC(=O)N1C` (single isomer, unassigned; (+)) [(+) optical isomer of compound 4, 6-Chloro-3,4-dihydro-3-methyl-4-phenyl-4-ethynyl-2(1H)-quinazolinone], the IC50 was around 0.06 nM.

Values taken from patent publication EP0530994A1, “Quinazoline derivatives as inhibitors of HIV reverse transcriptase” (MERCK & CO. INC., priority 1991, dated 1993).
